The values below come from patent US20100087539A1, “N'--3-AMINO-3-PHENYLPROPEONIC ACID AND THE PHARMACEUTICALLY ACCEPTABLE DERIVATIVES THEREOF, A METHOD FOR THE PRODUCTION AND THE USE THEREOF IN THE FORM OF A MEDICINAL AGENT” (priority 2006, published 2010).

Where two headings read alike, the source gives them in different places.

Data set [1] deals with T-cellular immunity. The data set can be described thus: T-cellular immunity upon immunization with sheep red blood cells, rosette formation method. In kind it is in vivo, mice. Particulars: for Number of rosettes per 10^3 cells: mice, s.c. SRBC with compound (10 mg/kg), splenocytes at day 6; for Stimulation index: rosettes with compound / rosettes with SRBC alone. Here is the method:
The effect on stimulating T-cellular immunity upon injection with a strong antigen of sheep red blood cells (SRBC) was studied by the rosette formation method.
Outbred male mice weighing 20-22 g were used in the experiment. […] SRBC without dipeptide 1 (negative control) or SRBC with IFA or with GA (positive control) were injected to the control animals; another control group—preimmune animals. At day 6 post immunization a suspension of splenocytes was prepared at a concentration of […] per 1 milliliter. 0.9 ml of the splenocyte suspension and 0.1 ml of a suspension of sheep red blood cells (10^9 cells per milliliter) were placed in glass vials, mixed and incubated for 16 h at 4° C. After incubation, 4 ml of a cold medium was added into the glass vial, carefully mixed; 100 μl of cell suspension was withdrawn using a pipette with a wide-bore mouth, stained with a 0.4% trypan blue solution and the number of rosettes was counted in a Gorjaev's chamber [Friemel H Immunological methods/Translated from German, edited by M. A. Frolova.—Moscow: Mir, 1979, 518 p.]. The results are presented as the number of rosettes formed per […]. The stimulation index was calculated as a ratio of the number of rosettes in the experiment (immunization with SRBC in a mixture with the compound studied) and the number of rosettes in the control (immunization with SRBC alone).

In data set [2] the test system is HIV-1/EVK. The data set can be described thus: microbe, parasite or virus in culture. In kind it is cell-based. Particulars: added simultaneously with the virus. The procedure: The anti-HIV activity of dipeptide 1 was studied on a highly HIV-sensitive cell culture MT-4. The MT-4 cells were added into the wells of a 96-well culture plate and infected with a virus stock (strain HIV-1/EVK) at a multiplicity of infection of 0.2-0.5 tissue culture infective dose per cell, then the test substance was added into a cell suspension simultaneously with the virus to give the final concentration of 0.00001 to 1 μg/ml (each concentration in triplicate) and incubated at 37° C. for 1 h (virus adsorption). On completion of the incubation, the suspension of the infected cells was diluted with a complete growth medium with all supplements as described above containing the preparations in the same concentrations to give the inoculation concentration of 0.5×10^6 cells/ml.
The experimental (with the preparation added) and control (without the preparation added) infected cells and control uninfected cells (without the preparation added) were cultivated at 37° C. and 5% CO2 for 4 days. On completion of the incubation the proportion of viable cells was counted in a Gorjaev's chamber after staining with a 0.4% trypan blue solution and the accumulation level of virus-specific protein p24 was controlled by the immunoenzyme method as described [Fedyuk N. V., Konovalov E. E., Loktev V. B., Uryvaev L. V., Kulyandin S. A., Pokrovsky A. G.//Problems of Virology, 1992, v. 3, p. 135].
In addition, the inhibiting dose ID90 that corresponds to the concentration of dipeptide 1 suppressing the virus production by 90% was determined. […] PD50, the concentration of dipeptide 1 protecting by 50% the infected cells from the virus-induced cytopathic effect was also calculated as described earlier by us [Svinarchuk P. P., Konevetz D. A., Pliasunova O. A., Pokrovsky A. G., Vlassov V. V.//Biochimie, 1993, Bd. 75, S. 243]. […] Comparing the concentrations inducing 50 and 90% inhibition of virus accumulation provides an important characteristic of the anti-viral activity.

The subject of data set [3] is MT-4 cells. Particulars: human, 4 days.
Data set [4] relates to B-cellular immunity. The data set can be described thus: B-cellular immunity upon immunization with BSA, specific antibody titer by enzyme-linked immunoassay. In kind it is in vivo, mice. The conditions noted are these: for Antibody titer (inverse value): mice, s.c. BSA with compound, sera at day 10 post second immunization; for Immunogenicity coefficient: relative to BSA without the preparation. The procedure:
400 μg of BSA was injected subcutaneously to the animals in 0.5 ml of 0.9% NaCl. Three groups of control animals were involved. […] Additionally, glycyrrhizinic acid (GA) was used as a known immunomodulator. Preimmune mice served as a control. At day 21 the second immunization was performed similarly (the injection solution contained 100 μg of BSA and 200 μg of the test compound). At day 10 post the second immunization blood sera were collected. The titer of antibodies was determined by an enzyme-linked immunoassay technique according to the procedure as described [Enzyme-linked immunoassay technique//Edited by T. T. Igo, G. Lenkhoffaju—Moscow: Mir, 1998].

For data set [5], the system named is HIV-1/EVK. The data set can be described thus: microbe, parasite or virus in culture. Particulars: added after virus adsorption; for EC50: read-out: Protection of cells from death PD50. In kind it is cell-based. Here is the method: The Anti-HIV activity of dipeptide 1 was studied on a highly HIV-sensitive cell culture MT-4. […] Then, aliquots of serial dilutions of dipeptide 1 in DMSO were added into the wells to the final concentrations of 0.1 ng/ml to 1 μg/ml (each concentration in triplicate). The experimental (with the preparation added) and control (without the preparation added) infected cells were cultivated at 37° C. and 5% CO2 for 4 days. […] 3, p. […] The inhibiting dose for dipeptide 1 is 0.4 μM. The dose of the compound protecting the cells from death (PD50) was also determined. […] Additionally, the selectivity index (IS) calculated as a ratio of the toxic dose of dipeptide 1 to the protection dose thereof PD50 (CD50/PD50) was determined.

The test system of data set [6] is white outbred mice. The data set can be described thus: Acute toxicity, intraperitoneal injection. In kind it is in vivo. The procedure: 0.5 ml of the compound was injected intraperitoneally to mice weighing 20 g, each group comprising 4 animals. 0.5 ml of sterile sunflower oil was injected to the control mice.
For data set [7], the system named is MT-4 cells. The data set can be described thus: Cytotoxicity on MT-4 cells (trypan blue viable cell count, 4 days). The conditions noted are these: concentration reducing by 50% the proportion of viable MT-4 cells.
Where [8] appears, read: Human immunodeficiency virus 1, MT4, 96 h, MT-4, HIV-1/EVK, 4 days, read-out: Inhibition of P24 accumulation ID50.

In the case of `C=C(C)[C@@H]1CC[C@]2(C(=O)NCCCCCCCCC(=O)NC(CC(=O)O)c3ccccc3)CC[C@]3(C)C(CCC4[C@@]5(C)CCC(=O)C(C)(C)C5CC[C@]43C)C12` (stereo partly drawn) [Compound 9], the “Number of rosettes per 10^3 cells” value in data set [1] was 21 ± 1.4. For the same compound, in data set [1], the Stimulation index amounted to 1.8. The “IS (selectivity index)” value in data set [2] (CD50/ID50) is recorded as 2135; in data set [5] (CD50/ID50) it was 14.0. Also, the figures for the IC50 in data set [2] (setting [8]) and in data set [5] (setting [8]) were 2.6 nM and 400 nM, respectively. For the same compound, the “Inhibition of P24 accumulation ID90” value in data set [2] (MT-4, HIV-1/EVK, 4 days) was 198 nM; in data set [5] (MT-4, HIV-1/EVK, 4 days) it was “Not achieved”. This compound registered a CD50 in data set [3] of 5.6 µM. Also, the “Antibody titer (inverse value)” value in data set [4] came out at 51200. The compound also had an Immunogenicity coefficient in data set [4] of 256. In addition, the EC50 in data set [5] (Human immunodeficiency virus 1, MT4, MT-4, HIV-1/EVK) came to 500 nM.
Regarding `CC1(C)[C@@H](O[C@H]2O[C@H](C(=O)O)[C@@H](O)[C@H](O)[C@H]2O[C@@H]2O[C@H](C(=O)O)[C@@H](O)[C@H](O)[C@H]2O)CC[C@]2(C)[C@H]3C(=O)C=C4[C@@H]5C[C@@](C)(C(=O)O)CC[C@]5(C)CC[C@@]4(C)[C@]3(C)CC[C@@H]12` [GA, glycyrrhizinic acid], in data set [1], the “Number of rosettes per 10^3 cells” value was 24 ± 1.1 and the Stimulation index was 2.0. In data set [4], the “Antibody titer (inverse value)” value is reported as 5120 and the Immunogenicity coefficient stood at 25.6.
As to “N′-{N-[3-oxo-lupan-28-oyl]-9-aminononanoyl}-3-amino-3-phenylpropionic acid [Compound 1]”, the “Number of rosettes per 10^3 cells” value in data set [1] is reported as 24 ± 1.3. In addition, the “Inhibition of P24 accumulation ID90” value in data set [2] (MT-4, HIV-1/EVK, 4 days) was 100 nM; in data set [5] (MT-4, HIV-1/EVK, 4 days) it was “Not achieved”. For the same compound, the EC50 in data set [2] (concentration protecting by 50% the infected cells from virus-induced cytopathic effect, read-out: PD50) was determined as 15 nM; in data set [5] (MT-4, HIV-1/EVK), 250 nM. The hazard class entry in data set [6] (from LD50, mice) is “class 3 of moderately hazardous substances”. Moreover, the LD50 result in data set [6] (mice of both sexes) is listed as “more than 2500 mg/kg”. This compound also came in with a CD50 in data set [7] of 6.8 µM.
